Measurements from PMC7048748, “Anxiolytic Drug FGIN-1-27 Ameliorates Autoimmunity by Metabolic Reprogramming of Pathogenic Th17 Cells” (Scientific Reports, 2020).

Legend:
Th17 cells = assay: Rescue of IL-17 production by NAC pre-treatment; format: cell-based, mouse; conditions: NAC 1 µM pre-treatment, 10 µM FGIN-1-27
Procedure: Figure 5 FGIN-1-27 induces amino acid starvation response (AAR). (a) MA-plot showing shrunken log2 fold-changes of detected genes between the DMSO and FGIN-1-27 RNA-seq samples, ranked by average normalized count. Red dots indicate differentially expressed genes at adjusted p-value <0.05. (b) Transcript levels for the indicated genes after 24 hours of treatment with DMSO or FGIN-1-27 quantified by qPCR. The error bars represent SD. (c) Western blot analysis for phosphorylated eIF2α and ATF4 24 hours after treatment with DMSO or FGIN-1-27 (5 and 10 µM). Data are representative of 3 independent experiments. (d) Amino acids in Th17 cells measured 72 hours after treatment with FGIN-1-27. The error bars represent SD. (e) ROS was measured using cell permeant reagent 2′,7′ –dichlorofluorescin diacetate (DCFDA) at 24 hours following treatment with FGIN-1-27. Filled grey histogram-DMSO, dotted line-FGIN-1-27 (10 µM) and dashed line indicates FGIN-1-27 (5 µM). (f) Dose response plot showing effect of FGIN-1-27 on intracellular IL-17 after pre-treatment with NAC (1 µM). […]
Increased amino acid synthesis and transport is characteristic of the amino acid starvation response (AAR)[20]. […] Induction of ATF4 can be an indication of oxidative stress and we measured reactive oxygen species (ROS) using the cell permeant reagent 2′,7′ –dichlorofluorescin diacetate (DCFDA).

Th17 responses = tested on: Th17 responses; parameters: method as in PMID 19498172; conditions: activation of the AAR; cited from earlier work

Row | Compound | rescue of defective IL-17 production (Th17 cells) | Th17 responses (Th17 responses)
1 | CC(=O)N[C@@H](CS)C(=O)O [NAC, N-acetyl cysteine] | 14% | 
2 | O=C(CC1NCCCC1O)Cn1cnc2cc(Br)c(Cl)cc2c1=O (centres unmarked) [halofuginone] |  | down-regulate Th17 responses
